Assay [1] deals with T1, AXL (Homo sapiens, UniProt P30530).
T1 construct: endogenous in cells; host or cells: A-172 glioblastoma cells (ATCC #CRL-1620)
T1 sequence (P30530 26-894): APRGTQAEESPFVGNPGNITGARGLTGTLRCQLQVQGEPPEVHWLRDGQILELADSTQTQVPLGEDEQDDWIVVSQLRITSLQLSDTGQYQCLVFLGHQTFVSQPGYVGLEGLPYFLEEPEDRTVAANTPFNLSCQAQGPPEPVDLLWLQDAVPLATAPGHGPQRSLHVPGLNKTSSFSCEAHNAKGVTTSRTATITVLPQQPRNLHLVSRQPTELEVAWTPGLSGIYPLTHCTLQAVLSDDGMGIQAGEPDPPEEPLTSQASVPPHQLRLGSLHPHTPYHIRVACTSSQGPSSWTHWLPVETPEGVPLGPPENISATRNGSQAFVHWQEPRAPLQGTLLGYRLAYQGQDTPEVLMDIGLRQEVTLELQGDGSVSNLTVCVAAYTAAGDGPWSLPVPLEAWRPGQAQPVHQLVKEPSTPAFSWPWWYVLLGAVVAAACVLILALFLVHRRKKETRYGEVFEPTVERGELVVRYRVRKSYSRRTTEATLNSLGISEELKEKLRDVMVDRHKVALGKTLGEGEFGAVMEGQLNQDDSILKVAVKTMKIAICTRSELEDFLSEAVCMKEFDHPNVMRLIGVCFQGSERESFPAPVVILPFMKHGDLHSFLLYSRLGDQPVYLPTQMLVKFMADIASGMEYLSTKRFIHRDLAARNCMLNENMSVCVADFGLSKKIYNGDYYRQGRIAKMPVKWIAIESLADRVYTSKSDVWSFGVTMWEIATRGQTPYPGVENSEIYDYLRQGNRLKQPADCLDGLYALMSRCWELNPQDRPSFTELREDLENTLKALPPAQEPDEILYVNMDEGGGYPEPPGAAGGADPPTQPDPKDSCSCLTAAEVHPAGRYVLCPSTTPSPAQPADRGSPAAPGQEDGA
Put plainly: AXL autophosphorylation ELISA in A-172 cells. Type of assay: cell-based. The following applies: Table 3 Cellular Activities, Gas6-stimulated, phospho-AXL ELISA. A digest of the protocol: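 Phospho-AXL in lysates measured by ELISA after Gas6 stimulation (1 μg/mL, 15 min) of A-172 cells pre-incubated 1 h with an 8-point compound dilution series in 0.3% DMSO after 24 h serum starvation. IC50 by 4-parameter logistic fit, with DMSO-treated and reference-inhibitor wells as 100% and 0% activity.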

For assay [2], the target named is Met (Homo sapiens, UniProt P08581). Put plainly: Met autophosphorylation ELISA in PC-3 cells. Format: cell-based. More on the design: endogenous in cells; host or cells: PC-3 prostate cancer cells (ATCC #CRL-1435). The following applies: Table 3 Cellular Activities, HGF-stimulated, phospho-Met ELISA, read-out: c-Met IC50. A digest of the protocol:
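IC50 derived by 4-parameter logistic regression of phospho-Met (panTyr) sandwich ELISA signal, scaled between HGF-stimulated DMSO and reference-inhibitor lysates. PC-3 cells, serum-starved 3 h, received an 8-point compound series (0.3% DMSO) for 1 h before 10 min stimulation with 100 ng/mL human HGF.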

SMILES strings stand for the structures. pIC50: −log10 of the molar value.

Chain of Met (P08581 25-1390): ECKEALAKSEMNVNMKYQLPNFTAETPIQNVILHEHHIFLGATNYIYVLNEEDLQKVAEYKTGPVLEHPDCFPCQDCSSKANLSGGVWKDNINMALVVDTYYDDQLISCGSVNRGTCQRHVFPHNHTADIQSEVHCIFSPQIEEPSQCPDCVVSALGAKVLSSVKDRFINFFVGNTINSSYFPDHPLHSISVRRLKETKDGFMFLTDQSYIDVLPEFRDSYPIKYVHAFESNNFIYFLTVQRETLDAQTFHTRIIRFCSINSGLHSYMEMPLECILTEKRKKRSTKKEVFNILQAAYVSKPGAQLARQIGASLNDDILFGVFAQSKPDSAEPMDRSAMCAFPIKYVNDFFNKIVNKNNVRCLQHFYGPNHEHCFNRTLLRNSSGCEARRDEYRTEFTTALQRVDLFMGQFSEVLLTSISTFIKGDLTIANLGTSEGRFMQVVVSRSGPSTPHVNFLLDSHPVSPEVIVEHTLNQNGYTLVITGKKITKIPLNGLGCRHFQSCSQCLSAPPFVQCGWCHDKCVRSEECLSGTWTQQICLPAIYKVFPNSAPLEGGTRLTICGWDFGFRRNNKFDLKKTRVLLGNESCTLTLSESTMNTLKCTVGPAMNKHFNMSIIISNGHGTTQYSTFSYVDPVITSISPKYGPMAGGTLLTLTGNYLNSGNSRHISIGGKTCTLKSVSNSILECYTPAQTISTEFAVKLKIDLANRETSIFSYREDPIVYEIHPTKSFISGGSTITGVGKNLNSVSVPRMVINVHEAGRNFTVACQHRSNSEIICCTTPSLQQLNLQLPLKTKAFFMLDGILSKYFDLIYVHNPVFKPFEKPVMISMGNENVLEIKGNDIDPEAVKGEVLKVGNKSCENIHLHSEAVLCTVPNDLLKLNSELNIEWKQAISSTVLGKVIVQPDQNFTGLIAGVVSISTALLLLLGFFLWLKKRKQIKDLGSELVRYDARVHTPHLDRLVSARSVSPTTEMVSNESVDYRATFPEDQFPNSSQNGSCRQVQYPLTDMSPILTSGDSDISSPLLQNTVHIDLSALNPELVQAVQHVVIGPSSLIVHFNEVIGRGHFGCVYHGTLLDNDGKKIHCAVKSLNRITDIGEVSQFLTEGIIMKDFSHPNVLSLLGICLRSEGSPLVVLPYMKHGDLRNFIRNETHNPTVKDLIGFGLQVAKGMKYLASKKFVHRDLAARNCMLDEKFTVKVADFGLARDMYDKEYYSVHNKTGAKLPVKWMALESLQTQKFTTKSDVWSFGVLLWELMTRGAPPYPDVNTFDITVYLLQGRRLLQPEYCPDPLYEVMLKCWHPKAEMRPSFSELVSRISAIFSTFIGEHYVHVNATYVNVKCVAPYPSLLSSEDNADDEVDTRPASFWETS

One may read the pIC50 as the IC50 on a negative log10 scale, so that one unit is a factor of ten. Consider `COCCOc1cc2nccc(Oc3ccc(NC(=O)c4c(C)n(C)c(C)c(-c5ccco5)c4=O)cc3F)c2nc1OC` [Compound 254, N-[3-Fluoro-4-[[6-methoxy-7-(2-methoxyethoxy)-1,5-naphthyridin-4-yl]oxy]phenyl]-5-(furan-2-yl)-1,2,6-trimethyl-4-oxopyridine-3-carboxamide], for which the pIC50 in assay [1] and in assay [2] was no less than 7.00 throughout.

Take `COc1cc2nccc(Oc3ccc(NC(=O)c4cnc(C)c(-c5ccco5)c4O)cc3)c2nc1OC` [Compound 255, N-[4-[(6,7-Dimethoxy-1,5-naphthyridin-4-yl)oxy]phenyl]-5-(furan-2-yl)-4-hydroxy-6-methylpyridine-3-carboxamide]: the negative-log IC50 (pIC50) in assay [1] and in assay [2] was no less than 7.00 in each case.

With `COc1cc2nccc(Oc3ccc(NC(=O)c4cnc(C)c(-c5cccs5)c4O)cc3)c2nc1OC` [Compound 256, N-[4-[(6,7-Dimethoxy-1,5-naphthyridin-4-yl)oxy]phenyl]-4-hydroxy-6-methyl-5-thiophen-2-ylpyridine-3-carboxamide], the pIC50 in assay [1] and in assay [2] was no less than 7.00 throughout.

In the case of `COc1cnc2c(Oc3ccc(NC(=O)c4cnc(C)c(-c5cccs5)c4O)cc3)ccnc2c1` [Compound 257, 4-Hydroxy-N-[4-[(7-methoxy-1,5-naphthyridin-4-yl)oxy]phenyl]-6-methyl-5-thiophen-2-ylpyridine-3-carboxamide], the pIC50 in assay [1] and in assay [2] was no less than 7.00 each time.

Turning to `COc1cc2nccc(Oc3ccc(NC(=O)c4cnc(C)c(-c5ccco5)c4O)cc3)c2cc1OC` [Compound 258, N-[4-(6,7-Dimethoxyquinolin-4-yl)oxyphenyl]-5-(furan-2-yl)-4-hydroxy-6-methylpyridine-3-carboxamide], the pIC50 in assay [1] and in assay [2] was no less than 7.00 each time.

Consider `COc1cc2nccc(Oc3ccc(NC(=O)c4cnc(C)c(-c5ccco5)c4O)cc3F)c2cc1OC` [Compound 259, N-[4-(6,7-Dimethoxyquinolin-4-yl)oxy-3-fluorophenyl]-5-(furan-2-yl)-4-hydroxy-6-methylpyridine-3-carboxamide], for which the pIC50 in assay [1] and in assay [2] was no less than 7.00 throughout.

`COCCOc1cc2nccc(Oc3ccc(NC(=O)c4cnc(C)c(-c5ccco5)c4O)cc3F)c2nc1OC` [Compound 260, N-[3-Fluoro-4-[[6-methoxy-7-(2-methoxyethoxy)-1,5-naphthyridin-4-yl]oxy]phenyl]-5-(furan-2-yl)-4-hydroxy-6-methylpyridine-3-carboxamide]: the pIC50 in assay [1] and in assay [2] was no less than 7.00 each time.

On to `COc1cc2nccc(Oc3ccc(NC(=O)c4c(C)n(C)c(C)c(-c5cc6ccccc6o5)c4=O)cc3F)c2nc1OC` [Compound 261, 5-(1-Benzofuran-2-yl)-N-[4-[(6,7-dimethoxy-1,5-naphthyridin-4-yl)oxy]-3-fluorophenyl]-1,2,6-trimethyl-4-oxopyridine-3-carboxamide], for which the pIC50 in assay [1] is no less than 7.00; in assay [2] it was 6.00 to 6.52.

In the case of `COc1cc2nccc(Oc3ccc(NC(=O)c4c(C)n(C)c(C)c(-c5coc6ccccc56)c4=O)cc3F)c2nc1OC` [Compound 262, 5-(1-Benzofuran-3-yl)-N-[4-[(6,7-dimethoxy-1,5-naphthyridin-4-yl)oxy]-3-fluorophenyl]-1,2,6-trimethyl-4-oxopyridine-3-carboxamide], the pIC50 is no less than 7.00 in assay [1] and 6.00 to 6.52 in assay [2].

Turning to `COCCOc1cc2nccc(Oc3ccc(NC(=O)c4c(C)n(C)c(C)c(-c5cc6ccccc6o5)c4=O)cc3F)c2nc1OC` [Compound 263, 5-(1-Benzofuran-2-yl)-N-[3-fluoro-4-[[6-methoxy-7-(2-methoxyethoxy)-1,5-naphthyridin-4-yl]oxy]phenyl]-1,2,6-trimethyl-4-oxopyridine-3-carboxamide], the values for the pIC50 in assay [1] and in assay [2] were no less than 7.00 and 6.00 to 6.52, respectively.

For the molecule `COCCOc1cc2nccc(Oc3ccc(NC(=O)c4c(C)n(C)c(C)c(-c5coc6ccccc56)c4=O)cc3F)c2nc1OC` [Compound 264, 5-(1-Benzofuran-3-yl)-N-[3-fluoro-4-[[6-methoxy-7-(2-methoxyethoxy)-1,5-naphthyridin-4-yl]oxy]phenyl]-1,2,6-trimethyl-4-oxopyridine-3-carboxamide], the negative-log IC50 (pIC50) in assay [1] and in assay [2] was no less than 7.00 throughout.

With `COc1cc2nccc(Oc3ccc(NC(=O)c4cnc(C)c(-c5ccco5)n4)cc3F)c2nc1OC` [Compound 269, N-[4-[(6,7-Dimethoxy-1,5-naphthyridin-4-yl)oxy]-3-fluorophenyl]-6-(furan-2-yl)-5-methylpyrazine-2-carboxamide], the pIC50 in assay [1] is 6.00 to 6.52; in assay [2], no less than 7.00.

Turning to `COc1cc2nccc(Oc3ccc(NC(=O)c4c5n(cc(-c6ccco6)c4=O)CCOC5)cc3F)c2nc1OC` [Compound 297, N-[4-[(6,7-Dimethoxy-1,5-naphthyridin-4-yl)oxy]-3-fluorophenyl]-7-(furan-2-yl)-8-oxo-3,4-dihydro-1H-pyrido[2,1-c][1,4]oxazine-9-carboxamide], the pIC50 in assay [1] and in assay [2] was no less than 7.00 in each case.

In the case of `COc1cc2nccc(Oc3ccc(NC(=O)c4c5n(cc(-c6ccco6)c4=O)CCOC5)cc3)c2nc1OC` [Compound 298, N-[4-[(6,7-Dimethoxy-1,5-naphthyridin-4-yl)oxy]phenyl]-7-(furan-2-yl)-8-oxo-3,4-dihydro-1H-pyrido[2,1-c][1,4]oxazine-9-carboxamide], the figures for the pIC50 in assay [1] and in assay [2] were no less than 7.00 and 6.00 to 6.52, respectively.

For the molecule `COc1cc2nccc(Oc3ccc(NC(=O)c4c5n(cc(-c6cccs6)c4=O)CCOC5)cc3)c2nc1OC` [Compound 299, N-[4-[(6,7-Dimethoxy-1,5-naphthyridin-4-yl)oxy]phenyl]-8-oxo-7-thiophen-2-yl-3,4-dihydro-1H-pyrido[2,1-c][1,4]oxazine-9-carboxamide], the pIC50 in assay [1] and in assay [2] was no less than 7.00 each time.

`COc1cc2nccc(Oc3ccc(NC(=O)c4c5n(cc(-c6cc(C)cs6)c4=O)CCOC5)cc3F)c2nc1OC` [Compound 302, N-[4-[(6,7-Dimethoxy-1,5-naphthyridin-4-yl)oxy]-3-fluorophenyl]-7-(4-methylthiophen-2-yl)-8-oxo-3,4-dihydro-1H-pyrido[2,1-c][1,4]oxazine-9-carboxamide]: the pIC50 in assay [1] and in assay [2] was no less than 7.00 throughout.

In the case of `COc1cc2nccc(Oc3ccc(NC(=O)c4c5n(cc(-c6cc(C)cs6)c4=O)CCOC5)cc3)c2nc1OC` [Compound 303, N-[4-[(6,7-Dimethoxy-1,5-naphthyridin-4-yl)oxy]phenyl]-7-(4-methylthiophen-2-yl)-8-oxo-3,4-dihydro-1H-pyrido[2,1-c][1,4]oxazine-9-carboxamide], the pIC50 in assay [1] was no less than 7.00; in assay [2] it was 6.52 to 7.00.

As for `COc1cc2nccc(Oc3ccc(NC(=O)c4c5n(cc(-c6ccc(C)s6)c4=O)CCOC5)cc3F)c2nc1OC` [Compound 304, N-[4-[(6,7-Dimethoxy-1,5-naphthyridin-4-yl)oxy]-3-fluorophenyl]-7-(5-methylthiophen-2-yl)-8-oxo-3,4-dihydro-1H-pyrido[2,1-c][1,4]oxazine-9-carboxamide], the pIC50 in assay [1] and in assay [2] was no less than 7.00 in each case.

For the molecule `COc1cc2nccc(Oc3ccc(NC(=O)c4c5n(cc(-c6ccc(C)s6)c4=O)CCOC5)cc3)c2nc1OC` [Compound 305, N-[4-[(6,7-Dimethoxy-1,5-naphthyridin-4-yl)oxy]phenyl]-7-(5-methylthiophen-2-yl)-8-oxo-3,4-dihydro-1H-pyrido[2,1-c][1,4]oxazine-9-carboxamide], the pIC50 in assay [1] and in assay [2] was no less than 7.00 each time.

With `COc1cc2nccc(Oc3ccc(NC(=O)c4c5n(cc(-c6ccoc6)c4=O)CCOC5)cc3F)c2nc1OC` [Compound 306, N-[4-[(6,7-Dimethoxy-1,5-naphthyridin-4-yl)oxy]-3-fluorophenyl]-7-(furan-3-yl)-8-oxo-3,4-dihydro-1H-pyrido[2,1-c][1,4]oxazine-9-carboxamide], the pIC50 in assay [1] and in assay [2] was no less than 7.00 throughout.

These data come from patent publication US20230151003A1, “COMPOUNDS AND METHODS OF USE” (Exelixis, Inc., priority 2020, published 2023).
